Compound: O=[As]([O-])(O)O.[K+] [potassium arsenate]
Assay: thermal stability z-score vs DMSO; higher = more thermally stabilized by treatment
Settings: HeLa; arsenate concentration 1 mM
Procedure: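 Cellular thermal proteome profiling in HeLa cells treated with 1 mM arsenate for 1 h (DMSO pretreatment), heated to ten temperatures (37-66.3 °C). Soluble protein was quantified by TMT mass spectrometry relative to DMSO controls; the thermal stability score was transformed to a z-score; mean of n = 3 experiments.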
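Note: each temperature applied for 3 min, abundance score taken as mean log2 fold change at the two lowest temperatures, z-score obtained by mean subtraction and division by SD.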

UniProt Q86W34, sequence (Q86W34 whole entry): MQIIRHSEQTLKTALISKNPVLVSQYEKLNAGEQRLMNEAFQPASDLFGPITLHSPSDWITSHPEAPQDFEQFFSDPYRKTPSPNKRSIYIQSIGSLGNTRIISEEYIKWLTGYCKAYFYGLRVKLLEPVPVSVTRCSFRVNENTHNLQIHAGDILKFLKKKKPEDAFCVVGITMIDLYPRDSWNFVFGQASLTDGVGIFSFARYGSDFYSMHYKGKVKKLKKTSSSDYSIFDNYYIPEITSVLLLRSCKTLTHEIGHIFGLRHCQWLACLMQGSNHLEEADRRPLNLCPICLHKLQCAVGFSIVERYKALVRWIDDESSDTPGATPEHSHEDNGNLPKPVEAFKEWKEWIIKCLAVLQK
UniProt P61244, sequence (P61244 whole entry): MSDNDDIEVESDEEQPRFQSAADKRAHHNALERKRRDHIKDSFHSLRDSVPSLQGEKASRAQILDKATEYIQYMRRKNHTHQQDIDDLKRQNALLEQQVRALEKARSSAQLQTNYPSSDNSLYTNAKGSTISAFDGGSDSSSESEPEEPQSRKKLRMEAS
UniProt O15392, sequence (O15392 whole entry): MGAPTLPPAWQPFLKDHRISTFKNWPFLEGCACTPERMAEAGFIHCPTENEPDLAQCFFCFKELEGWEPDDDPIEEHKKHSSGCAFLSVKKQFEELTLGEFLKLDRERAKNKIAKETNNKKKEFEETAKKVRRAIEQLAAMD
UniProt O75494, sequence (O75494 whole entry): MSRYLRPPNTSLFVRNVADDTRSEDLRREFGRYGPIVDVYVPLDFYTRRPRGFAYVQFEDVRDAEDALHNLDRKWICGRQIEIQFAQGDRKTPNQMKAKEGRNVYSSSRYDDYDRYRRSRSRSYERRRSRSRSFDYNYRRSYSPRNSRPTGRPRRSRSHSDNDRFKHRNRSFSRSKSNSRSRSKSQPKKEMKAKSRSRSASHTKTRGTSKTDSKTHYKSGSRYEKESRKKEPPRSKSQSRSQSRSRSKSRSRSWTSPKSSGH
UniProt P53611, sequence (P53611 whole entry): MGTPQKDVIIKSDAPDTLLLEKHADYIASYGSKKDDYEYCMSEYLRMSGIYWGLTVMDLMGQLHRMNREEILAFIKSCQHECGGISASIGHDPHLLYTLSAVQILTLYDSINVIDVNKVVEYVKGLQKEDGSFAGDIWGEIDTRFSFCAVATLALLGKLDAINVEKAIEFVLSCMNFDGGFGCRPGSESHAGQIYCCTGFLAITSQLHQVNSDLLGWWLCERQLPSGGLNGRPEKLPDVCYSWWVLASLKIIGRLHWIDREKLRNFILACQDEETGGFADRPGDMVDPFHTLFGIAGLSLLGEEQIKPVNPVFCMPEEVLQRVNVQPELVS
UniProt O60826, sequence (O60826 whole entry): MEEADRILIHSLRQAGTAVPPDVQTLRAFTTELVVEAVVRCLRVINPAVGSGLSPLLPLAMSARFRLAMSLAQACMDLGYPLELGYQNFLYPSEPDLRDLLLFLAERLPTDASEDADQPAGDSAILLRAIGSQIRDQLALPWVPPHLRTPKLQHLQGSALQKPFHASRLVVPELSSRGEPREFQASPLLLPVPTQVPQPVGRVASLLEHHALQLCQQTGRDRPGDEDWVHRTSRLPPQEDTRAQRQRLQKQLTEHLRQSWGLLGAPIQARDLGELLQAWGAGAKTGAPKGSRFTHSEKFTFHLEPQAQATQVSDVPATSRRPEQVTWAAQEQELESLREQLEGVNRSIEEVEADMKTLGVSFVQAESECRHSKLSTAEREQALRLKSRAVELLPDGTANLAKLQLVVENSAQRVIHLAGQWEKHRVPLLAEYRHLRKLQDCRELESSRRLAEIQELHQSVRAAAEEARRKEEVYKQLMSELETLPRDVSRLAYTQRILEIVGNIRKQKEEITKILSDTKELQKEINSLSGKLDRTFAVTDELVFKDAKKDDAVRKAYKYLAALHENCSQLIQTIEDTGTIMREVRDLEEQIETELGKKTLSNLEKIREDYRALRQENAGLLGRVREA
UniProt P63098, sequence (P63098 whole entry, looked up): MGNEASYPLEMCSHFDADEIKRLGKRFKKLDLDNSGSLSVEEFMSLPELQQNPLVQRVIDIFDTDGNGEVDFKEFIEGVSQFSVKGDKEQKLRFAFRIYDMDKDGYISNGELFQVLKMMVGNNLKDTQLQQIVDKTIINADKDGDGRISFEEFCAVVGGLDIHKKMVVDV
UniProt Q9Y385, sequence (Q9Y385 whole entry): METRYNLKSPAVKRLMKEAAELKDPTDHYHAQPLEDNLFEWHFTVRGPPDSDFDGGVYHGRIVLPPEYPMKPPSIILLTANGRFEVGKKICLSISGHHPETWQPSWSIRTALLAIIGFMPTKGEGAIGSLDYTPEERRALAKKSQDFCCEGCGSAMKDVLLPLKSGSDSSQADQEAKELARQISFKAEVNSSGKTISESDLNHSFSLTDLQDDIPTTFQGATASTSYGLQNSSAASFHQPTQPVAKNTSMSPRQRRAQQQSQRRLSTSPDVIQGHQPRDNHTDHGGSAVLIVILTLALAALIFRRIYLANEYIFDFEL
UniProt Q15283, sequence (Q15283 whole entry): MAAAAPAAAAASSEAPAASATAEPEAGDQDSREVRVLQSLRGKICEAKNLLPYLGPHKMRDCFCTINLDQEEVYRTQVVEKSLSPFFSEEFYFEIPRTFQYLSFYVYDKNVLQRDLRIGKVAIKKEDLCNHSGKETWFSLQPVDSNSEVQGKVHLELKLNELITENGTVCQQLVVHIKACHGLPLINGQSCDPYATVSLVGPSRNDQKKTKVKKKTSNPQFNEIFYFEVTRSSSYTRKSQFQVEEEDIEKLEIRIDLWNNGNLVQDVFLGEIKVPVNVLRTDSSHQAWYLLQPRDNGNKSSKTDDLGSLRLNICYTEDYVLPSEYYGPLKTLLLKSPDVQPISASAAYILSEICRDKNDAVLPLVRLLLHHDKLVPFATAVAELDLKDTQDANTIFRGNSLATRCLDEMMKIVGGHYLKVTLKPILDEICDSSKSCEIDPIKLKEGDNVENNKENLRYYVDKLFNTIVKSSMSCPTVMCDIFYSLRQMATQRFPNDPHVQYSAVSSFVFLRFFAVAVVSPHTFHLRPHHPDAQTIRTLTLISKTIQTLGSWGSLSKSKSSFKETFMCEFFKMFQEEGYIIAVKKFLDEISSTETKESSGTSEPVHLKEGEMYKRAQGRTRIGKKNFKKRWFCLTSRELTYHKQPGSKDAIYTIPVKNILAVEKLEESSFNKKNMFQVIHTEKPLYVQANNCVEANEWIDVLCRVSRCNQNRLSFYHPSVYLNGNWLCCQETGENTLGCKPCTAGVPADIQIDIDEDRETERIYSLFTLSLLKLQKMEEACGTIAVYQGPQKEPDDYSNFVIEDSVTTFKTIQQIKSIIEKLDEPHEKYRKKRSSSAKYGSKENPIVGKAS
UniProt Q9NY27, sequence (Q9NY27 whole entry): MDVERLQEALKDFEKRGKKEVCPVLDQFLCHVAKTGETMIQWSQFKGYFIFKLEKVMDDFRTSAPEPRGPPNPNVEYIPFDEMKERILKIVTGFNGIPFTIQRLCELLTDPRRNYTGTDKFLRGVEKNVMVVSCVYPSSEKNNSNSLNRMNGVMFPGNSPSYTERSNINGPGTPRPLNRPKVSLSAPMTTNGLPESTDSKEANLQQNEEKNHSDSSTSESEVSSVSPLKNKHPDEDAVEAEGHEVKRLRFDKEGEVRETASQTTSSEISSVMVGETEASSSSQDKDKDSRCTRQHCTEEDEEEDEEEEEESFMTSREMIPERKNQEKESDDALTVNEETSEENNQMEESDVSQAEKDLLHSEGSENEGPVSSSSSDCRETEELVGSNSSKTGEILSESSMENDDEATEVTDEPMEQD
UniProt P00519, sequence (P00519 whole entry): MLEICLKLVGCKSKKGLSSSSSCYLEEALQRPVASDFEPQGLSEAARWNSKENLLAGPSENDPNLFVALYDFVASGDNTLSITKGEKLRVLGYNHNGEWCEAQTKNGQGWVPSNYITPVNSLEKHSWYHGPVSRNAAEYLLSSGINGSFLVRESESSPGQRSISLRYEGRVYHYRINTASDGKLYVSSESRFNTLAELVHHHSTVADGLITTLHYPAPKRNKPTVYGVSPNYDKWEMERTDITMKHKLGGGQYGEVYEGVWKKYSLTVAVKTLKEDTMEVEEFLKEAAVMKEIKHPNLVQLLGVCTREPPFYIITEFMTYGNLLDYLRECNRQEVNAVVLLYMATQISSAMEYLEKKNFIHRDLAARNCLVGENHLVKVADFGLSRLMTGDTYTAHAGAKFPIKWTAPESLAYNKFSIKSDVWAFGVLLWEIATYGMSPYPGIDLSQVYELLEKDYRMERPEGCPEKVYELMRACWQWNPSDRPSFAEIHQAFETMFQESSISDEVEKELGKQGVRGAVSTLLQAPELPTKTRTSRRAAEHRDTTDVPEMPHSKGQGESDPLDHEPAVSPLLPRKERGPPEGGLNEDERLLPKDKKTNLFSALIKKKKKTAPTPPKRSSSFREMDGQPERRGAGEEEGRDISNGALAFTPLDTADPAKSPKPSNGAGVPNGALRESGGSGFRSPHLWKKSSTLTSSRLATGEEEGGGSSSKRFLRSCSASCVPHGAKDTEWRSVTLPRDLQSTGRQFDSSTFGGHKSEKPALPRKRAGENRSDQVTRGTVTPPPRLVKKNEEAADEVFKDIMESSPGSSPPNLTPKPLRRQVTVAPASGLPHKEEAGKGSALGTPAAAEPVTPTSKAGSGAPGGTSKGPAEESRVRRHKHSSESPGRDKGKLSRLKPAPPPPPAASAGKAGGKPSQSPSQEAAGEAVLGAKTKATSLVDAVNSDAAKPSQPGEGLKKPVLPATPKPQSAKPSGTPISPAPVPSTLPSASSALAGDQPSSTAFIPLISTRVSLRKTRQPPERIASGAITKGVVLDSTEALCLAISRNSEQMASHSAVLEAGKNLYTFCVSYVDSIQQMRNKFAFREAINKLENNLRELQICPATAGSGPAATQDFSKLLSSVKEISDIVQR
UniProt Q9BRT2, sequence (Q9BRT2 whole entry): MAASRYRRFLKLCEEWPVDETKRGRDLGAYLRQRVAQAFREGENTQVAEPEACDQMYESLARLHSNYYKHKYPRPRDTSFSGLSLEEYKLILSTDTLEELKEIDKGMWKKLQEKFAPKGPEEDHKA

Target | thermal stability z-score
DDX42 (UniProt Q86XP3) | 0.47
FANCA (UniProt O15360) | -0.103
CCDC22 (UniProt O60826) | 0.0749
PCBP1 (UniProt Q15365) | -1.31
MAX (UniProt P61244) | 2.9
RPL18 (UniProt Q07020) | -0.424
PTPRF (UniProt P10586) | -0.656
PSEN1 (UniProt P49768) | -2.52
OXSR1 (UniProt O95747) | -0.408
TPRA1 (UniProt Q86W33) | 0.19
PEA15 (UniProt Q15121) | 0.716
CLSPN (UniProt Q9HAW4) | 1.12
DNAJB4 (UniProt Q9UDY4) | -0.708
PPM1B (UniProt O75688) | 0.179
DAGLB (UniProt Q8NCG7) | 0.0163
UTP6 (UniProt Q9NYH9) | 0.272
CEPT1 (UniProt Q9Y6K0) | 0.959
IVD (UniProt P26440) | 0.902
PPP4R2 (UniProt Q9NY27) | -0.136
PLEKHA1 (UniProt Q9HB21) | -0.185
SRSF10 (UniProt O75494) | 2.99
HSDL2 (UniProt Q6YN16) | 0.41
ZNF668 (UniProt Q96K58) | -0.073
CTSB (UniProt P07858) | -0.676

Target | thermal stability z-score
UBE2J1 (UniProt Q9Y385) | 0.198
R3HCC1L (UniProt Q7Z5L2) | 0.0177
VKORC1L1 (UniProt Q8N0U8) | 0.544
GTF2H4 (UniProt Q92759) | 0.148
ARL3 (UniProt P36405) | -0.424
RPS3 (UniProt P23396) | -0.627
THNSL1 (UniProt Q8IYQ7) | 0.0365
MRTO4 (UniProt Q9UKD2) | 0.036
NOTCH1 (UniProt P46531) | -0.0336
AMZ2 (UniProt Q86W34) | 0.211
TCOF1 (UniProt Q13428) | 0.157
ARMC6 (UniProt Q6NXE6) | 1.37
TOP2A (UniProt P11388) | -0.293
ATG4C (UniProt Q96DT6) | 0.0488
BCL9L (UniProt Q86UU0) | -0.128
TOP1 (UniProt P11387) | -0.734
RABGGTB (UniProt P53611) | 1.46
ZNHIT2 (UniProt Q9UHR6) | -0.28
RNPS1 (UniProt Q15287) | 0.528
RPP25 (UniProt Q9BUL9) | -1.34
SRP19 (UniProt P09132) | 0.033
CLCC1 (UniProt Q96S66) | 0.408
DHX8 (UniProt Q14562) | 0.449
BMP1 (UniProt P13497) | 0.347

Target | thermal stability z-score
PLD3 (UniProt Q8IV08) | 0.817
ECHS1 (UniProt P30084) | -1.22
UQCC2 (UniProt Q9BRT2) | 0.139
PPP1R21 (UniProt Q6ZMI0) | -0.839
ATR (UniProt Q13535) | -0.568
PJA2 (UniProt O43164) | -3.43
RASA2 (UniProt Q15283) | -0.334
CASP7 (UniProt P55210) | -0.753
OGFOD3 (UniProt Q6PK18) | -0.0712
MRAS (UniProt O14807) | 0.0682
CHSY1 (UniProt Q86X52) | -0.171
BIRC5 (UniProt O15392) | 0.136
WDR48 (UniProt Q8TAF3) | 1.13
CDAN1 (UniProt Q8IWY9) | -0.113
TSEN2 (UniProt Q8NCE0) | -0.00537
MIF (UniProt P14174) | -0.0642
MSRB3 (UniProt Q8IXL7) | 0.269
APP (UniProt P05067) | 0.137
ABL1 (UniProt P00519) | 0.137
YWHAZ (UniProt P63104) | -0.195
GMPR2 (UniProt Q9P2T1) | 0.121
ASNA1 (UniProt O43681) | -0.178
PPP3R1 (UniProt P63098) | 0.32

Compound: NC(=O)CCCCC1CCSS1 [lipoamide]
Assay: as above
Settings: HeLa; lipoamide concentration 100 µM; arsenate co-treatment: 1 mM arsenate 1 h
Procedure: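 Cellular thermal proteome profiling in HeLa cells. Cells were treated with 100 µM lipoamide for 1 h, with or without 1 mM arsenate for a further 1 h, then heated to ten temperatures (37-66.3 °C), and soluble protein was quantified by TMT mass spectrometry relative to 0.1% DMSO controls. The thermal stability score (sum of log2 fold changes minus the abundance score) was transformed to a z-score; mean of n = 3 experiments.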

Target | thermal stability z-score
DDX42 (UniProt Q86XP3) | 0.815
FANCA (UniProt O15360) | -0.0907
CCDC22 (UniProt O60826) | -0.152
PCBP1 (UniProt Q15365) | -0.057
MAX (UniProt P61244) | 2.75
RPL18 (UniProt Q07020) | 0.497
PTPRF (UniProt P10586) | -0.381
PSEN1 (UniProt P49768) | 1.23
OXSR1 (UniProt O95747) | 0.903
TPRA1 (UniProt Q86W33) | -0.68
PEA15 (UniProt Q15121) | 0.388
CLSPN (UniProt Q9HAW4) | -0.352
DNAJB4 (UniProt Q9UDY4) | -0.368
PPM1B (UniProt O75688) | 0.109
DAGLB (UniProt Q8NCG7) | 0.268
UTP6 (UniProt Q9NYH9) | 0.13
CEPT1 (UniProt Q9Y6K0) | 0.685
IVD (UniProt P26440) | 0.0798
PPP4R2 (UniProt Q9NY27) | -0.326
PLEKHA1 (UniProt Q9HB21) | -0.0949
SRSF10 (UniProt O75494) | 1.16
HSDL2 (UniProt Q6YN16) | 0.183
ZNF668 (UniProt Q96K58) | 0.0589
CTSB (UniProt P07858) | -0.289

Target | thermal stability z-score
UBE2J1 (UniProt Q9Y385) | -0.909
R3HCC1L (UniProt Q7Z5L2) | 0.00414
VKORC1L1 (UniProt Q8N0U8) | 0.529
GTF2H4 (UniProt Q92759) | 0.108
ARL3 (UniProt P36405) | -0.325
RPS3 (UniProt P23396) | 0.354
THNSL1 (UniProt Q8IYQ7) | 0.202
MRTO4 (UniProt Q9UKD2) | 0.246
NOTCH1 (UniProt P46531) | 0.143
AMZ2 (UniProt Q86W34) | 0.33
TCOF1 (UniProt Q13428) | 0.957
ARMC6 (UniProt Q6NXE6) | -0.546
TOP2A (UniProt P11388) | -0.141
ATG4C (UniProt Q96DT6) | 0.0282
BCL9L (UniProt Q86UU0) | 0.0577
TOP1 (UniProt P11387) | 0.0566
RABGGTB (UniProt P53611) | 0.508
ZNHIT2 (UniProt Q9UHR6) | -0.047
RNPS1 (UniProt Q15287) | 1.23
RPP25 (UniProt Q9BUL9) | -0.534
SRP19 (UniProt P09132) | -0.296
CLCC1 (UniProt Q96S66) | -5.63
DHX8 (UniProt Q14562) | 0.819
BMP1 (UniProt P13497) | 0.492

Target | thermal stability z-score
PLD3 (UniProt Q8IV08) | 0.32
ECHS1 (UniProt P30084) | -0.919
UQCC2 (UniProt Q9BRT2) | 0.0305
PPP1R21 (UniProt Q6ZMI0) | -0.328
ATR (UniProt Q13535) | -0.0437
PJA2 (UniProt O43164) | -0.202
RASA2 (UniProt Q15283) | -0.0591
CASP7 (UniProt P55210) | 0.596
OGFOD3 (UniProt Q6PK18) | 0.0324
MRAS (UniProt O14807) | 0.488
CHSY1 (UniProt Q86X52) | -0.212
BIRC5 (UniProt O15392) | 0.166
WDR48 (UniProt Q8TAF3) | 0.197
CDAN1 (UniProt Q8IWY9) | -0.217
TSEN2 (UniProt Q8NCE0) | 0.337
MIF (UniProt P14174) | 0.245
MSRB3 (UniProt Q8IXL7) | 0.866
APP (UniProt P05067) | -1.82
ABL1 (UniProt P00519) | -0.261
YWHAZ (UniProt P63104) | 0.146
GMPR2 (UniProt Q9P2T1) | 0.37
ASNA1 (UniProt O43681) | -0.234
PPP3R1 (UniProt P63098) | 0.0623

Same assay, conditions: HeLa; lipoamide concentration 100 µM; arsenate co-treatment: none

Target | thermal stability z-score
DDX42 (UniProt Q86XP3) | 0.837
FANCA (UniProt O15360) | -0.00129
CCDC22 (UniProt O60826) | -0.59
PCBP1 (UniProt Q15365) | 0.0883
MAX (UniProt P61244) | 2.05
RPL18 (UniProt Q07020) | -0.313
PTPRF (UniProt P10586) | -0.381
PSEN1 (UniProt P49768) | -2
OXSR1 (UniProt O95747) | 0.68
TPRA1 (UniProt Q86W33) | -0.251
PEA15 (UniProt Q15121) | 0.243
CLSPN (UniProt Q9HAW4) | 0.214
DNAJB4 (UniProt Q9UDY4) | -0.146
PPM1B (UniProt O75688) | 0.277
DAGLB (UniProt Q8NCG7) | 0.278
UTP6 (UniProt Q9NYH9) | -0.00953
CEPT1 (UniProt Q9Y6K0) | 0.4
IVD (UniProt P26440) | -0.0801
PPP4R2 (UniProt Q9NY27) | 0.221
PLEKHA1 (UniProt Q9HB21) | -0.105
SRSF10 (UniProt O75494) | 0.452
HSDL2 (UniProt Q6YN16) | 0.156
ZNF668 (UniProt Q96K58) | -0.155
CTSB (UniProt P07858) | -0.315

Target | thermal stability z-score
UBE2J1 (UniProt Q9Y385) | -0.103
R3HCC1L (UniProt Q7Z5L2) | 0.282
VKORC1L1 (UniProt Q8N0U8) | -0.318
GTF2H4 (UniProt Q92759) | 0.112
ARL3 (UniProt P36405) | -0.435
RPS3 (UniProt P23396) | 0.207
THNSL1 (UniProt Q8IYQ7) | -0.188
MRTO4 (UniProt Q9UKD2) | 0.308
NOTCH1 (UniProt P46531) | 0.13
AMZ2 (UniProt Q86W34) | -0.032
TCOF1 (UniProt Q13428) | 0.648
ARMC6 (UniProt Q6NXE6) | -0.743
TOP2A (UniProt P11388) | 0.0459
ATG4C (UniProt Q96DT6) | 0.0873
BCL9L (UniProt Q86UU0) | 0.096
TOP1 (UniProt P11387) | 0.449
RABGGTB (UniProt P53611) | -0.0991
ZNHIT2 (UniProt Q9UHR6) | 0.147
RNPS1 (UniProt Q15287) | 0.438
RPP25 (UniProt Q9BUL9) | -0.856
SRP19 (UniProt P09132) | -0.485
CLCC1 (UniProt Q96S66) | -5.9
DHX8 (UniProt Q14562) | 0.167
BMP1 (UniProt P13497) | 0.427

Target | thermal stability z-score
PLD3 (UniProt Q8IV08) | 0.424
ECHS1 (UniProt P30084) | -0.57
UQCC2 (UniProt Q9BRT2) | -0.239
PPP1R21 (UniProt Q6ZMI0) | -0.0718
ATR (UniProt Q13535) | 0.124
PJA2 (UniProt O43164) | -0.163
RASA2 (UniProt Q15283) | -0.273
CASP7 (UniProt P55210) | 0.147
OGFOD3 (UniProt Q6PK18) | -0.274
MRAS (UniProt O14807) | -0.67
CHSY1 (UniProt Q86X52) | -0.333
BIRC5 (UniProt O15392) | 0.186
WDR48 (UniProt Q8TAF3) | 0.3
CDAN1 (UniProt Q8IWY9) | -0.235
TSEN2 (UniProt Q8NCE0) | 0.418
MIF (UniProt P14174) | -0.0795
MSRB3 (UniProt Q8IXL7) | 0.887
APP (UniProt P05067) | -1.75
ABL1 (UniProt P00519) | -0.21
YWHAZ (UniProt P63104) | -0.0541
GMPR2 (UniProt Q9P2T1) | 0.368
ASNA1 (UniProt O43681) | -0.285
PPP3R1 (UniProt P63098) | 0.412
